Results taken from paper PMC11215771 (Journal of Medicinal Chemistry, 2024).

Tests used:
[1] = Fluorescence spectroscopy, sensitivity to BSA and Expi293F cells; conditions: mock Expi293F cells in fluorobrite vs PBS alone
Procedure: Emission and excitation spectra of all compounds were determined at a concentration of 33 nM in phosphate buffered saline (PBS) using an infinite 200pro (Tecan) with a resolution of 2 nm. […] For sensitivity assessment, we used PBS, PBS + BSA (0.05%), and Expi293F cells in fluorobrite (2 × 10^6 cells/mL).

[2] = molecular target: T1, hBACE2 fused to EGFP in HEK293T cells (Homo sapiens, UniProt Q9Y5Z0); assay: Staining of transfected HEK293T cells, confocal imaging: BACE2; type: cell-based
T1 construct: expressed in transfected cells; host or cells: HEK293T
T1 sequence (Q9Y5Z0 63-518): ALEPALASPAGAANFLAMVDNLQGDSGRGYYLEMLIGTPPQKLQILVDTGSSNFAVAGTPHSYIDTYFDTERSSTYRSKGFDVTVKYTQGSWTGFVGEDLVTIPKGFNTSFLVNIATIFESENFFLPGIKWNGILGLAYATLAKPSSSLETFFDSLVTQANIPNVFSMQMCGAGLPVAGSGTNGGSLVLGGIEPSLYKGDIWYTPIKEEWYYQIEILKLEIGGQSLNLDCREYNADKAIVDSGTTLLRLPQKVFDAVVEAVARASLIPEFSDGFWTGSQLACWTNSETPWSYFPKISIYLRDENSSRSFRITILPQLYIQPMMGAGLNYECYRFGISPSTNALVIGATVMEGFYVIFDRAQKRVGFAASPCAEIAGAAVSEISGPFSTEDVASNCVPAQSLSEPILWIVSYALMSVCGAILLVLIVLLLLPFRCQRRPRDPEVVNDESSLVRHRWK
Procedure: Next, we explored the performance of the new Alexa-C3 compounds in living cells. Because of the rather hydrophilic properties, we exclusively targeted the cell membrane. To prevent intracellular accumulation, we first performed stainings at 4 °C arresting ATP-dependent endocytosis. […] All of the constructs were tagged at the C-terminus with either EGFP or mCherry to visualize subcellular expression. […] With these experiments, we want to exclude that a lack of staining is caused by an impaired accessibility of the protein by Alexa-C3 compounds. […] We then tested samples with BACE1 expression after fixation of the cells with paraformaldehyde (PFA).
(D) All conjugates were also probed on cells fixed with 4% paraformaldehyde (PFA) for 15 min prior to staining. […] Scale bars represent 5 μm (A–D) and 20 μm (E). […] Samples were excited at 488, 561, and 633 nm, respectively.
HEK293T cells (ATCC accession number CRL-11268) were maintained in Dulbecco's modified Eagle's medium (Sigma-Aldrich D6046) with 1g/L glucose, supplemented with 10% FCS (Merck) and 1% penicillin/streptomycin (PAA). CHO-K1 cells (ATCC #CCL-61) were maintained in modified phenol red free RPMI-1640 medium (Sigma-Aldrich, R7509), supplemented with 2 mM L-glutamine (Sigma-Aldrich, G7513), and 10% FCS (Merck). Cells were cultured at 37 °C in a 5% CO2 atmosphere. […]

increase of fluorescent output in presence of Expi293F cells [1]	staining of BACE2 [2]	SMILES
+25%		C[C@@H](NC(=O)c1cc(C(=O)N[C@@H](Cc2ccccc2)[C@H](O)CNC2CC2)cc(N(C)S(=O)(=O)CCCNC(=O)c2ccc(C(=O)O)c(-c3c4ccc(=N)c(S(=O)(=O)O)c-4oc4c(S(=O)(=O)O)c(N)ccc34)c2)c1)c1ccccc1 [2-(6-Amino-3-iminio-4,5-disulfo-3H-xanthen-9-yl)-4-((3-(N-(3-(((2S,3R)-4-(cyclopropylamino)-3-hydroxy-1-phenylbutan-2-yl)carbamoyl)-5-(((R)-1-phenylethyl)carbamoyl)phenyl)-N-methylsulfamoyl)propyl)carbamoyl)benzoate]
+8%	not labeled	C[C@@H](NC(=O)c1cc(C(=O)N[C@@H](Cc2ccccc2)[C@H](O)CNC2CC2)cc(N(C)S(=O)(=O)CCCNC(=O)CCCCCC2(C)C(/C=C/C=C/C=C3/N(CCCS(=O)(=O)O)c4ccc(S(=O)(=O)O)cc4C3(C)C)=[N+](CCCS(=O)(=O)[O-])c3ccc(S(=O)(=O)O)cc32)c1)c1ccccc1 (stereo partly drawn)
